Results reported in patent US8163939B2, “Ascorbic acid derivative or salt thereof, production method thereof, and cosmetic” (Seikwa Kasei Company, Limited, priority 2007, dated 2012).
Blank lines part the entries; values can stand above or below the molecule they belong to.

Tests used:
[1] = Moisturizing test: moisturizing effect by water retention force; type: physicochemical; details: for moisturizing effect (in words): conclusion from Table 43, compared with ascorbic acid
Protocol: A sample shown later was dried, and the dried sample was spread in an amount of about 0.4 g (this weight is represented by W0) on the bottom of a weighing bottle (diameter: 3.6 cm, height excluding lid: 1.8 cm) so as to give uniform thickness. The sample contained in the weighing bottle was allowed to stand still in a constant humidity and constant temperature vessel (ENVIROS KCL-1000, TOKYO RIKAKIKAI CO, LTD) under environments of 25° C. and 65% RH. The weight was measured periodically, waiting until sufficient moisture absorption to attain equilibrium of weight increase (about 48 hours). Thereafter, the sample was transferred to under environments of 25° C. and 20% RH (in sealed vessel containing a saturated CH3COOK aqueous solution filled in the bottom part). From the weight after 24 hours (this weight is represented by W1), the amount of retained water per 1 g of the dried sample was calculated according to the following formula. (W1−W0)/W0
From the water amount thus calculated, the moisturizing effect was judged based on the following judging criterion, and the results are shown in Table 43.
Three compounds: 2,3-di-O-glyceryl ascorbic acid, 2,3-di-O-phenylglyceryl ascorbic acid, and glycerin, and
Six compounds: ascorbic acid, ascorbic acid glucoside, 2-O-glyceryl ascorbic acid, 3-O-glyceryl ascorbic acid, 3-O-butylglyceryl ascorbic acid and 3-O-octylglyceryl ascorbic acid, which were adjusted to pH7 with a dilute sodium hydroxide aqueous solution and concentrated.
◯: 25 mg or more and less than 40 mg
Δ: 10 mg or more and less than 25 mg

B16 melanoma 4A5 cell = experiment: Whitening test: theophylline-induced melanine production in B16 melanoma 4A5 cells; type: cell-based, mouse; details: sample at a concentration of 100 μM or less; theophylline-induced melanine production; 3 days culture; N=4;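 further: grades: ± under 20% + 20-40% ++ 40-70% +++ 70-100% suppression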
Protocol: As a test for a whitening effect, evaluation of the action of B16 melanoma 4A5 cell on theophylline-induced melanine production was carried out on an ascorbic acid derivative of the present invention, according to the following procedure. The same evaluation was carried out also on ascorbic acid, known compounds: ascorbic acid salts, and ascorbic acid derivatives, as comparison. The results are shown in Tables 38 to 40. • (1) B16 mouse melanoma 4A5 strain was sowed onto a 48-well plate at a cell density of 2.0×10^4 cells/well. • (2) Culturing was performed for 24 hours with Dulbecco's Modified Eagle's medium (manufactured by SIGMA. Hereinafter, abbreviated as D-MEM) containing 10% fetal bovine serum (manufactured by Roshe Diagnostics). Then, it was changed to 0.2 mM theophylline and a 10% fetal bovine serum-containing D-MEM which contains a sample of given concentration. • (3) After culturing for 3 days in the co-existence of a sample, the medium was removed using an aspirator. Then, after distilled water was added, cells were broken by an ultrasonic wave. • (4) Thereafter, the amount of protein was determined using BCA protein assay kit (manufactured by PIERCE), and the produced amount of melanine was measured by an alkali solubilizing method. To the cell-destructed solution was added sodium hydroxide so as to give a final concentration of 2N and the mixture was dissolved by heating (60° C., 15 minutes), then, the absorbance at 450 nm was measured using a micro plate reader. The melanine amount was calculated from a calibration curve made using synthetic melanine (SIGMA) as a standard. The melanine amount per unit protein was calculated by dividing the melanine amount by the protein amount. • (5) The melanine production suppressing rate was calculated according to the following formula. Melanine production suppressing rate (%)=[1−(A−B)/(C−B)]×100 [wherein, A represents the melanine amount per unit protein (g/g) in adding a sample, B represents the melanine amount per unit protein (g/g) in the normal group, and C represents the melanine amount per unit protein (g/g) in the control group.]
In the following Tables, the melanine production suppressing rate in measuring a sample at a concentration of 100 μM or less is expressed as described below. The measurement was carried out at N=4.

[2] = Stability Test 1: 2% aqueous solution, pH7, room temperature, 4 weeks (residual rate, odor, coloration); type: physicochemical
Protocol: (§1) Aqueous solutions (2%) of various test samples were adjusted to pH7 with a dilute sodium hydroxide aqueous solution, and charged into 50 mL screw tubes, and the tubes were sealed and stored at room temperature for 4 weeks. Thereafter, HPLC measurement were performed (using liquid chromatography manufactured by Tosoh Corp.) and the residual rate was obtained based on the peak area. The residual rate, odor(odor change) and degree of coloration were evaluated based on the following methods and standards, and the results are shown in Table 41.
◯: 80% or more and less than 90%
Δ: 60% or more and less than 80%
X: 20% or more and less than 60%
It was evaluated according to the following criterion by 10 panelists.
Based on the evaluation results, classification was conducted as shown below.
◯: total point of 10 panelists is 25 or more
Δ: total point of 10 panelists is 16 to 24
X: total point of 10 panelists is 15 or less
3: almost no change as compared with that immediately after preparation
2: coloration is observed as compared with that immediately after preparation
1: intense coloration is observed as compared with that immediately after preparation

[3] = Stability Test 2: 2% aqueous solution, pH7, 50° C., 4 weeks (residual rate, odor, coloration); type: physicochemical
Protocol: as §1
The same test as in Test Example 2 was carried out excepting that the sample was stored at 50° C. for 4 weeks instead of storing at room temperature for 4 weeks.

[4] = system: Normal human dermal fibroblasts; experiment: Collagen production of human fibroblast (Sircol collagen assay, 100 μM, 48 hours); type: cell-based; details: cultured 48 hours; for activity at 100 µM: Homo sapiens, Fibroblast, N=4, read-out: Collagen production promoting effect (collagen production amount, % of control group)
Protocol: (§2) Normal human dermal fibroblasts were regulated with a 10% (v/v) fetal bovine serum (manufactured by Roshe Diagnostics)-containing D-MEM so as to give a cell density of 2.5×10^4 cells/well, then, pre-incubation for 24 hours was performed on a 96-well plate. After the medium was removed, a sample regulated with a 5% (v/v) fetal bovine serum-containing D-MEM to a concentration of 100 μM was added to each well, then, cultured for 48 hours under 37° C. and 5% CO2. After completion of culturing, the amount of free collagen was measured using Sircol collagen assay kit (manufactured by Biocolor). The measurement was carried out at N=4.
The collagen production amount in measuring a sample at a concentration of 100 μM was compared with the control group, and the results thereof (% value when the control group is 100%) are shown in Tables 44 and 45 based on the following standard.

[5] = system: Normal human dermal fibroblasts; experiment: Collagen production of human fibroblast 2 (100 μM or 500 μM; 2, 4 and 7 days); type: cell-based; details: for Collagen production amount in comparison with the control group (% value when the control group is 100%): Table 46, 100 μM or 500 μM (not stated which), average ± standard error, N=4; for collagen production promoting effect over time (in words): 100 μM or 500 μM, culturing 2, 4 and 7 days
Protocol: as §2
Free collagen was measured under the same conditions as in Test Example 5 excepting that the concentration of each sample was 100 μM or 500 μM and culturing was carried out for 2 days, 4 days and 7 days. The measurement was carried out at N=4, and the average and standard error, in four test examples, of values of the collagen production amount in comparison with the control group (% value when the control group is 100%) are shown in Tables 46 and 47.

[6] = storage period 2 weeks, 10 panelists
[7] = storage period 4 weeks, 10 panelists

Judgement of moisturizing effect (water amount) [1]: Δ (Δ: 10 mg or more and less than 25 mg)
Molecule: 2,3-di-O-phenylglycerylascorbic acid

Judgement of moisturizing effect (water amount) [1]: ⊚ (⊚: 40 mg or more)
Molecule: O=C1O[C@H]([C@@H](O)CO)C(OCC(O)CO)=C1OCC(O)CO (stereo partly drawn) [2,3-di-O-glycerylascorbic acid]

Judgement of moisturizing effect (water amount) [1]: Δ (Δ: 10 mg or more and less than 25 mg)
Molecule: 3-O-octylglycerylascorbic acid

Residual rate ([2]; storage period 0): ⊚ (⊚: 90% or more)
Residual rate ([2]; storage period 2 weeks): ⊚ (⊚: 90% or more)
Residual rate ([2]; storage period 4 weeks): ⊚ (⊚: 90% or more)
Residual rate ([3]; storage period 0): ⊚ (⊚: 90% or more)
Residual rate ([3]; storage period 2 weeks): ⊚ (⊚: 90% or more)
Residual rate ([3]; storage period 4 weeks): ⊚ (⊚: 90% or more)
Molecule: O=C1O[C@H]([C@@H](O)CO)C(OCC(O)CO)=C1OCC(O)CO (stereo partly drawn) [Example 4, 2,3-di-O-glyceryl ascorbic acid]
Whitening effect (melanine production suppressing rate) (B16 melanoma 4A5 cell): + (20 to 40%:+)
Coloration ([2]; storage period 0, 10 panelists): ◯ (◯: total point of 10 panelists is 25 or more)
Odor ([2]; storage period 0, 10 panelists): ◯ (◯: total point of 10 panelists is 25 or more)
Coloration [2, 6]: ◯ (◯: total point of 10 panelists is 25 or more)
Odor [2, 6]: ◯ (◯: total point of 10 panelists is 25 or more)
Coloration [2, 7]: ◯ (◯: total point of 10 panelists is 25 or more)
Odor [2, 7]: ◯ (◯: total point of 10 panelists is 25 or more)
Coloration ([3]; storage period 0, 10 panelists): ◯ (◯: total point of 10 panelists is 25 or more)
Odor ([3]; storage period 0, 10 panelists): ◯ (◯: total point of 10 panelists is 25 or more)
Coloration [3, 6]: ◯ (◯: total point of 10 panelists is 25 or more)
Odor [3, 6]: ◯ (◯: total point of 10 panelists is 25 or more)
Coloration [3, 7]: ◯ (◯: total point of 10 panelists is 25 or more)
Odor [3, 7]: ◯ (◯: total point of 10 panelists is 25 or more)
moisturizing effect (in words) [1]: excellent moisturizing effect by far than ascorbic acid
activity at 100 µM [4]: 100 to 200%
Collagen production amount in comparison with the control group (% value when the control group is 100%) ([5]; culturing period 2 days): 161 ± 8%
Collagen production amount in comparison with the control group (% value when the control group is 100%) ([5]; culturing period 4 days): 171 ± 7%
Collagen production amount in comparison with the control group (% value when the control group is 100%) ([5]; culturing period 7 days): 209 ± 27%

Judgement of moisturizing effect (water amount) [1]: ⊚ (⊚: 40 mg or more)
Molecule: O=C1O[C@H]([C@@H](O)CO)C(O)=C1O[C@H]1O[C@H](CO)[C@@H](O)[C@H](O)[C@H]1O [ascorbic acid glucoside, reference compound]
Whitening effect (melanine production suppressing rate) (B16 melanoma 4A5 cell): + (20 to 40%:+)
Collagen production promoting effect (collagen production amount, % of control group) ([4]; N=4): + (100 to 200%:+)
collagen production promoting effect over time (in words) [5]: lowers over time
Collagen production amount in comparison with the control group (% value when the control group is 100%) ([5]; culturing period 2 days): 193 ± 4%
Collagen production amount in comparison with the control group (% value when the control group is 100%) ([5]; culturing period 4 days): 239 ± 2%
Collagen production amount in comparison with the control group (% value when the control group is 100%) ([5]; culturing period 7 days): 179 ± 14%

Judgement of moisturizing effect (water amount) [1]: ⊚ (⊚: 40 mg or more)
Molecule: O=C1O[C@H]([C@@H](O)CO)C(O)=C1OCC(O)CO (stereo partly drawn) [2-O-glycerylascorbic acid]

Judgement of moisturizing effect (water amount) [1]: ⊚ (⊚: 40 mg or more)
Molecule: OCC(O)CO [glycerin, reference compound]

Molecule: O=C1O[C@H]([C@@H](O)CO)C(OCC(O)CO)=C1O (stereo partly drawn) [Example 1, 3-O-glyceryl ascorbic acid]
moisturizing effect (in words) [1]: more excellent moisturizing effect than ascorbic acid

Judgement of moisturizing effect (water amount) [1]: ◯ (◯: 25 mg or more and less than 40 mg)
Molecule: 3-O-butylglycerylascorbic acid

Residual rate ([2]; storage period 0): ⊚ (⊚: 90% or more)
Residual rate ([2]; storage period 2 weeks): ◯ (◯: 80% or more and less than 90%)
Residual rate ([2]; storage period 4 weeks): ◯ (◯: 80% or more and less than 90%)
Residual rate ([3]; storage period 0): ◯ (◯: 80% or more and less than 90%)
Residual rate ([3]; storage period 2 weeks): X (X: 20% or more and less than 60%)
Residual rate ([3]; storage period 4 weeks): X (X: 20% or more and less than 60%)
Molecule: CCOC1=C(O)C(=O)O[C@@H]1[C@@H](O)CO [3-O-ethylascorbic acid, reference compound]
Whitening effect (melanine production suppressing rate) (B16 melanoma 4A5 cell): + (20 to 40%:+)
Coloration ([2]; storage period 0, 10 panelists): ◯ (◯: total point of 10 panelists is 25 or more)
Odor ([2]; storage period 0, 10 panelists): ◯ (◯: total point of 10 panelists is 25 or more)
Coloration [2, 6]: ◯ (◯: total point of 10 panelists is 25 or more)
Odor [2, 6]: ◯ (◯: total point of 10 panelists is 25 or more)
Coloration [2, 7]: Δ (Δ: total point of 10 panelists is 16 to 24)
Odor [2, 7]: ◯ (◯: total point of 10 panelists is 25 or more)
Coloration ([3]; storage period 0, 10 panelists): ◯ (◯: total point of 10 panelists is 25 or more)
Odor ([3]; storage period 0, 10 panelists): ◯ (◯: total point of 10 panelists is 25 or more)
Coloration [3, 6]: Δ (Δ: total point of 10 panelists is 16 to 24)
Odor [3, 6]: Δ (Δ: total point of 10 panelists is 16 to 24)
Coloration [3, 7]: Δ (Δ: total point of 10 panelists is 16 to 24)
Odor [3, 7]: Δ (Δ: total point of 10 panelists is 16 to 24)
activity at 100 µM [4]: 100 to 200%
collagen production promoting effect over time (in words) [5]: lowers over time
Collagen production amount in comparison with the control group (% value when the control group is 100%) ([5]; culturing period 2 days): 140 ± 4%
Collagen production amount in comparison with the control group (% value when the control group is 100%) ([5]; culturing period 4 days): 138 ± 2%
Collagen production amount in comparison with the control group (% value when the control group is 100%) ([5]; culturing period 7 days): 106 ± 14%

Judgement of moisturizing effect (water amount) [1]: ◯ (◯: 25 mg or more and less than 40 mg)
Molecule: O=C1O[C@H]([C@@H](O)CO)C(OCC(O)CO)=C1O (stereo partly drawn) [3-O-glycerylascorbic acid]
